Results published in ChEMBL document CHEMBL1201862, “PubChem BioAssay data set” (2004).
Calls of active or inactive are those of the source.

What was measured:
[1] = molecular target: T1, DNA dC->dU-editing enzyme APOBEC-3A (Homo sapiens, UniProt P31941); assay: SAR analysis of small molecule inhibitors of APOBEC3A DNA Deaminase via a fluorescence-based single-stranded DNA deaminase assay.; type: functional; settings: read-out: IC50_Mean
[2] = molecular target: T2, Alkaline phosphatase, tissue-nonspecific isozyme (Homo sapiens, UniProt P05186); assay: TNAP enzyme inhibition by screening hits, dose response, selectivity assay for mouse IAP inhibitor project, biochemical, human TNAP, uHTS hits (AID 488906); type: functional
T2 sequence (P05186 whole entry): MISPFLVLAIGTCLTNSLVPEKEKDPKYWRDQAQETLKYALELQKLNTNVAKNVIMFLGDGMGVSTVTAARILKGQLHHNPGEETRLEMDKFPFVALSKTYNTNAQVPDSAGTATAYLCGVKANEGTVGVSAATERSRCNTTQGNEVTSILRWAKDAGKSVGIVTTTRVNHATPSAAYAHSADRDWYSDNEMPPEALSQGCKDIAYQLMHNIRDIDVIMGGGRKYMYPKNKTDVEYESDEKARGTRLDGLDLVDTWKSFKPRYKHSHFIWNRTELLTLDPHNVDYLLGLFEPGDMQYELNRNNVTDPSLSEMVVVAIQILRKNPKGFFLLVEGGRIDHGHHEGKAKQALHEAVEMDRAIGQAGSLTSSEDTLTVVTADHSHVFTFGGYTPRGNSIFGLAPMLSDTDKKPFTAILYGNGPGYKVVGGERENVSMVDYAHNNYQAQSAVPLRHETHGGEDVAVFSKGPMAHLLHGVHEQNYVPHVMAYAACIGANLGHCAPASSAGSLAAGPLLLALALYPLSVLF

[3] = molecular target: Intestinal-type alkaline phosphatase (Mus musculus, UniProt P24822); assay: PubChem AID 488785; type: functional
[4] = molecular target: T3, DNA dC->dU-editing enzyme APOBEC-3G (Homo sapiens, UniProt Q9HC16); assay: inhibition of APOBEC3G ssDNA deamination – biochemical, fluorescence, single-stranded DNA substrate, SAR follow-up (AID 602136); type: functional; settings: read-out: IC50_Mean
[5] = molecular target: Intestinal-type alkaline phosphatase (Homo sapiens, UniProt P09923); assay: inhibition of human intestinal alkaline phosphatase – biochemical, dose response (AID 488876); type: functional
[6] = molecular target: T4, Microphthalmia-associated transcription factor (Homo sapiens, UniProt O75030); assay: reducers of TRPM1 reporter luminescence, concentration series – cell-based, SK-MEL-5, cherry-picked, set 3, MITF inhibitor project, dose response (AID 493073); type: functional;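 note: SK-MEL-5 melanoma cells with luciferase driven by the MITF target TRPM1 promoter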
T4 sequence (O75030 whole entry): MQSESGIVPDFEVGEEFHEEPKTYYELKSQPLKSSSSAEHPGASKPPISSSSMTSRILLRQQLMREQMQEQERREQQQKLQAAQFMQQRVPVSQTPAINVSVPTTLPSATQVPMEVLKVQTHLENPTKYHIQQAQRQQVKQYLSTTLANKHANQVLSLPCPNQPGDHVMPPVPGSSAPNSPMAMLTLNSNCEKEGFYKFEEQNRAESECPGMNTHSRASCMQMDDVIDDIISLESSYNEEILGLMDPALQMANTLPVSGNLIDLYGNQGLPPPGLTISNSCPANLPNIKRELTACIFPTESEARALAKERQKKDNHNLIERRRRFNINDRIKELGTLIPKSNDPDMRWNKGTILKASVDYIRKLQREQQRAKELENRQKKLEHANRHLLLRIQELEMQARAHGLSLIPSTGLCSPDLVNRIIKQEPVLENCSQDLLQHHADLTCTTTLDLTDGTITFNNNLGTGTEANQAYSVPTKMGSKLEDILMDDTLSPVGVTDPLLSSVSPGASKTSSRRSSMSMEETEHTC

[7] = molecular target: T3, DNA dC->dU-editing enzyme APOBEC-3G; type: functional
[8] = molecular target: T1, DNA dC->dU-editing enzyme APOBEC-3A; assay: Dose Response confirmation of small molecule APOBEC3A DNA Deaminase Inhibitors via a fluorescence-based single-stranded DNA deaminase assay. [Related pubchem assays (depositor defined):AID493011, AID493024]; type: functional
[9] = molecular target: T1, DNA dC->dU-editing enzyme APOBEC-3A; assay: SAR analysis of small molecule inhibitors of APOBEC3A DNA Deaminase via a fluorescence-based single-stranded DNA deaminase assay - Set 2.; type: functional; settings: read-out: IC50_Mean
[10] = molecular target: T3, DNA dC->dU-editing enzyme APOBEC-3G; assay: SAR analysis of small molecule inhibitors of APOBEC3G DNA Deaminase via a fluorescence-based single-stranded DNA deaminase assay - Set 2.; type: functional; settings: read-out: IC50_Mean
[11] = viability of HCT116 lacking mutant beta-catenin – cell-based, human colon tumor, dose response (AID 1045); type: functional;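 note: HCT116 colon tumor cells with beta catenin knocked out; cells exposed to compound for 60 hours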
[12] = fluconazole-exposed Candida albicans growth modulators – fluorescence, retest, confirmation (AID 2467); type: functional, cell-based
[13] = molecular target: Melanocortin receptor 4 (Homo sapiens, UniProt P32245); assay: inhibitors of MC4R cAMP signaling – cell-based, TR-FRET, biased antagonists, dose response (AID 602298); type: functional;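 note: antagonist potency against agonist-stimulated cAMP production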
[14] = viability of PTEN-deleted HCT116 cells – cell-based, HCT116 PTEN knockout, dose response (AID 1047); type: functional;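 note: HCT116 colon tumor cells with PTEN knocked out; cells exposed to compound for 60 hours before readout; potency for loss of cell viability measured by luminescence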
[15] = molecular target: T5, Protein RecA (Mycobacterium tuberculosis, UniProt P9WHJ3); assay: Fluorescence Cell-Free Homogeneous Dose Retest to Identify Inhibitors of RecA-Intein Splicing Activity. [Related pubchem assays (depositor defined):AID2097, AID2223, AID489010, AID492950]; type: functional
T5 sequence (P9WHJ3 whole entry): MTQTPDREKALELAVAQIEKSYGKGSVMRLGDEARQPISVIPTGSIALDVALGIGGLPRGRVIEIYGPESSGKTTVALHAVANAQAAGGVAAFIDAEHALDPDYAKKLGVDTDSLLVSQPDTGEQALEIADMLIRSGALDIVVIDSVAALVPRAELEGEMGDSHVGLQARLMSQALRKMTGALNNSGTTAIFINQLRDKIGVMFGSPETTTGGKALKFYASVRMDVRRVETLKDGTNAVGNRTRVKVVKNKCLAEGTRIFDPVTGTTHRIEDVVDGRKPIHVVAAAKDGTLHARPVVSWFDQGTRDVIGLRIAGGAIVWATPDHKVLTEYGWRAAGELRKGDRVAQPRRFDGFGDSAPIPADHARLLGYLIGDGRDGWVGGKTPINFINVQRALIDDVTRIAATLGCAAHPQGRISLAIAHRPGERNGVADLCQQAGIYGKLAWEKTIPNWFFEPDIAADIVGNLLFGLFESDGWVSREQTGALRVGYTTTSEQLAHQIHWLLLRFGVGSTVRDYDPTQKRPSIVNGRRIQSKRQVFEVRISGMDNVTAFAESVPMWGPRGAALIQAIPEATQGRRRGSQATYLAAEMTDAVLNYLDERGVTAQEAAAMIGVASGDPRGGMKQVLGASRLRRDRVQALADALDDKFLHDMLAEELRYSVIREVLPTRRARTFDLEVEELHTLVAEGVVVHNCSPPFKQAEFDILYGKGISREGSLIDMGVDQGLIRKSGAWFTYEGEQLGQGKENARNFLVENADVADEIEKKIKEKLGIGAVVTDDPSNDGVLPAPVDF

[16] = reduction of Shn3 3'UTR-driven luciferase in osteoblasts – cell-based, Clone20 osteoblasts, firefly luciferase, cherry-picked, dose response (AID 624132); type: functional;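 note: firefly luciferase luminescence from reporter carrying the Shn3 3'UTR in osteoblasts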
[17] = system: HEK293; assay: cells; settings: Homo sapiens
[18] = cAMP pathway inhibition in counterscreen cell line – TR-FRET cAMP detection, counter-screen for MC4R biased antagonist project, dose response (AID 602305); type: functional, cell-based;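 note: U2OS cells stimulated with forskolin near its EC80 as the cAMP inducer; potency is for inhibition of forskolin-stimulated cAMP signaling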
[19] = non-specific 3'UTR reporter inhibition in Clone20-Shn3RL – cell-based, Renilla luciferase, cherry-picked, counter-screen for Shn3 inhibitor project, dose response (AID 624133); type: functional
[20] = molecular target: T6, Replicative DNA helicase DnaB (Mycobacterium tuberculosis, UniProt P9WMR3); assay: DnaB intein splicing inhibitors, dose response, biochemical, cell-free fluorescence (AID 449749); type: functional
T6 sequence (P9WMR3 whole entry): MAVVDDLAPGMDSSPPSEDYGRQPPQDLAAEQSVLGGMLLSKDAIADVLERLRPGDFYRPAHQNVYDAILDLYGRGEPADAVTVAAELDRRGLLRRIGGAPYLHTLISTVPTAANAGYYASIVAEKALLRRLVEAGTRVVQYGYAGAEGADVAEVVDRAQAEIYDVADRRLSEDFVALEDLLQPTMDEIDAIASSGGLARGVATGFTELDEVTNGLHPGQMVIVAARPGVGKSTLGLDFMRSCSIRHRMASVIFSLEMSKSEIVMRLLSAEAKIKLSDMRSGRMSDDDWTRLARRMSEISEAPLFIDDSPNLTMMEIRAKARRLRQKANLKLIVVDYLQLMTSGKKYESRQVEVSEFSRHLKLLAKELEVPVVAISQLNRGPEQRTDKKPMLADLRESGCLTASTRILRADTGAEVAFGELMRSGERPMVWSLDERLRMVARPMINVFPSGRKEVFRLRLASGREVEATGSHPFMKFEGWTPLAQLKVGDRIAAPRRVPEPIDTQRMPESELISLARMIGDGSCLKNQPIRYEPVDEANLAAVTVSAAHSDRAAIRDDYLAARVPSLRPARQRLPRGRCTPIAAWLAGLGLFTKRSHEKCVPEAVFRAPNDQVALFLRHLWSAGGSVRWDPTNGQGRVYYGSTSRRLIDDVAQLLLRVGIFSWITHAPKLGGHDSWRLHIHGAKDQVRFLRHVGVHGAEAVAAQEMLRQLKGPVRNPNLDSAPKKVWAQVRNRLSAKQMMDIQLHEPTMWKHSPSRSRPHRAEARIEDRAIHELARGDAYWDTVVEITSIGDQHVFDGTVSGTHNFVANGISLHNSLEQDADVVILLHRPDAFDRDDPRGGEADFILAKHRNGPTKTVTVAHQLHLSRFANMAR

[21] = system: HEK293; assay: cells; settings: Homo sapiens; remark: listed apart in the source
[22] = NIH-3T3 fibroblast cytotoxicity, dose response, cytotoxicity control, cell-based, fluorescence, Alamar Blue, secondary assay (AID 2327); type: functional;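 note: NIH-3T3 mouse fibroblasts cultured with fluconazole at 8 µg/mL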
[23] = molecular target: Heat shock protein HSP 90-alpha (Homo sapiens, UniProt P07900); type: functional, organism-based
[24] = molecular target: T7, High affinity choline transporter 1 (Homo sapiens, UniProt Q9GZV3); assay: human choline transporter blockers, potency – cell-based, 10-point CRC, membrane potential dye, dose response (AID 588401); type: functional;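 note: membrane potential dye fluorescence of choline-evoked depolarization via CHT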
T7 sequence (Q9GZV3 whole entry): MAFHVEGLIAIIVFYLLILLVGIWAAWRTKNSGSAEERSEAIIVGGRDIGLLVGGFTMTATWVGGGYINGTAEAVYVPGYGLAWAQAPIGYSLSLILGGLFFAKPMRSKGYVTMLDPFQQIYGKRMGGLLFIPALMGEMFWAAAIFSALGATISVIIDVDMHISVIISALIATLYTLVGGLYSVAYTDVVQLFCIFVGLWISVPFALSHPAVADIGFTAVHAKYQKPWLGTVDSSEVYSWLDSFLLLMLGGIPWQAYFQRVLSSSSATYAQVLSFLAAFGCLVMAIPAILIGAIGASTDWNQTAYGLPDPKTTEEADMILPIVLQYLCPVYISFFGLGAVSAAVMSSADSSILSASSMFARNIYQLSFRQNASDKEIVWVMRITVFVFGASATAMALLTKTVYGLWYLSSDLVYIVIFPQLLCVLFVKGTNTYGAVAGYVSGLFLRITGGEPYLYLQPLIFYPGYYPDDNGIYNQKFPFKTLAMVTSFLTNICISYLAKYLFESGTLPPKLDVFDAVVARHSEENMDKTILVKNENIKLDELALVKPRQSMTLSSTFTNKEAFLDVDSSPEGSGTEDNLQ

[25] = molecular target: T7, High affinity choline transporter 1; assay: human choline transporter blockers, potency – cell-based, 5-point CRC, membrane potential dye, dose response (AID 504840); type: functional

T1 sequence (P31941 whole entry): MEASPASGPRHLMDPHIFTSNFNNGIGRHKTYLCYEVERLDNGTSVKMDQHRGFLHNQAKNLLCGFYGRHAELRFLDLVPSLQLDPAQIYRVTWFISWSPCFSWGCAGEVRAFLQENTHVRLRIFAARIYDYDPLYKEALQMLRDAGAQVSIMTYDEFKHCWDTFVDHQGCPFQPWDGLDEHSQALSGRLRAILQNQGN
T3 sequence (Q9HC16 whole entry): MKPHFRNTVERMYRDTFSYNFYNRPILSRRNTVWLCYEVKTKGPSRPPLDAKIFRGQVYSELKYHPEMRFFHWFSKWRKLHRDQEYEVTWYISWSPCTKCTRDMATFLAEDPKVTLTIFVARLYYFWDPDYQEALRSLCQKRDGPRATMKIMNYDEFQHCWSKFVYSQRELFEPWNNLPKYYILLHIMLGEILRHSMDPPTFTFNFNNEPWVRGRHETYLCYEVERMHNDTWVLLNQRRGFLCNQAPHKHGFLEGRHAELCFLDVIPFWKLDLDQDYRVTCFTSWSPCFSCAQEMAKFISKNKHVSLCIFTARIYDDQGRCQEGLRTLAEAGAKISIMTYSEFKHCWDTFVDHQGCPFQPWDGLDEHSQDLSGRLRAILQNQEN
Intestinal-type alkaline phosphatase (Mus musculus, UniProt P24822), sequence (P24822 whole entry): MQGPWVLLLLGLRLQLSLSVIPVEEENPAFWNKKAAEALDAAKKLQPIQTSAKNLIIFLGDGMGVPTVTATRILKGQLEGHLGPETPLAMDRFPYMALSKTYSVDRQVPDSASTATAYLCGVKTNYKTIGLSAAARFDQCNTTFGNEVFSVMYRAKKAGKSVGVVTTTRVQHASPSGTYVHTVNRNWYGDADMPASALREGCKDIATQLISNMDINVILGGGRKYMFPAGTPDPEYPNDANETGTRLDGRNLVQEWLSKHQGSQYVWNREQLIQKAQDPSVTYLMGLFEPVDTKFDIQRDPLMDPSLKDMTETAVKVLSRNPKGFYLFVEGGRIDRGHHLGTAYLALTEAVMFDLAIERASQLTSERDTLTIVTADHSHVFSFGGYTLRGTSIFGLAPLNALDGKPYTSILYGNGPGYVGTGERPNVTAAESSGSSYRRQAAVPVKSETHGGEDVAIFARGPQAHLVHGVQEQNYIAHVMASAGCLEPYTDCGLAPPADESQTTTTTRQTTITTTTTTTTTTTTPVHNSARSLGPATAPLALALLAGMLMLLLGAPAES
Intestinal-type alkaline phosphatase (Homo sapiens, UniProt P09923), sequence (P09923 whole entry): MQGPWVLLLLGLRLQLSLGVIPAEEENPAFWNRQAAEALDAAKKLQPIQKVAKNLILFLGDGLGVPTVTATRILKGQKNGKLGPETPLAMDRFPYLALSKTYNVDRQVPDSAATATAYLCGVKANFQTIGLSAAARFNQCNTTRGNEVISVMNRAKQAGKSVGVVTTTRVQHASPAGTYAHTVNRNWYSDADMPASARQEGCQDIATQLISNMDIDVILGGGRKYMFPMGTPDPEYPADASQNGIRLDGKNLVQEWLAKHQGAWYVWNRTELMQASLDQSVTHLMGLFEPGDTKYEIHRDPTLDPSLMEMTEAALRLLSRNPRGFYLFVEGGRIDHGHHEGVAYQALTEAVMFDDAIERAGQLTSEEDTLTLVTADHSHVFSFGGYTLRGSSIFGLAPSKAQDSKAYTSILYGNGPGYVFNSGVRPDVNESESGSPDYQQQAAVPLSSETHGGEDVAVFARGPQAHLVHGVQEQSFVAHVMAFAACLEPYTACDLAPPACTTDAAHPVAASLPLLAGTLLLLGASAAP
Melanocortin receptor 4, sequence (P32245 whole entry): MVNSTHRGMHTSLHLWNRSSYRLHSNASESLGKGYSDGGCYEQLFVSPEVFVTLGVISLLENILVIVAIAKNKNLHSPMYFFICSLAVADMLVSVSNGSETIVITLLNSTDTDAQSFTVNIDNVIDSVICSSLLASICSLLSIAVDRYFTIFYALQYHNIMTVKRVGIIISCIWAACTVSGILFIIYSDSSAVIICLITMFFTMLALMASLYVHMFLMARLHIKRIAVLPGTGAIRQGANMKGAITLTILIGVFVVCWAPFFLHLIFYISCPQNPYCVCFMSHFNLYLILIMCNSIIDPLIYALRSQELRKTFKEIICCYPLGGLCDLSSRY

For Cn1nc([N+](=O)[O-])nc1S(C)(=O)=O, the IC50 [1] was 14.4 µM (inactive), the IC50 [2] was 74.1 µM (active) and the IC50 [3] was 5.66 µM (active). For the same compound, the IC50 [4] was 27.2 µM (inactive), the IC50 [5] was > 100 µM (inactive) and the AC50 [6] was 9.2 µM (active). For the same compound, the IC50 [7] was 65.5 µM (active), the IC50 [8] was 4.14 µM (active) and the IC50 [9] was 13.1 µM (inactive). The IC50 [10] was 24.1 µM (inactive).

In the case of O=[N+]([O-])c1cc(S(=O)(=O)C(F)(F)F)ccc1Sc1nc2ccccc2s1, the EC50 [11] is reported as 7.45 µM (active), the EC50 [12] is reported as > 38 µM (not active) and the IC50 [13] is reported as > 2.39 µM (active). The EC50 [14] was 8.04 µM (active), the EC50 [15] was 0.249 µM (active) and the AC50 [16] was 2.45 µM (active). The EC50 [17] was > 59.6 µM (inactive), the IC50 [18] was > 64.6 µM (inactive) and the AC50 [19] was 15.4 µM (active). The AC50 [20] was 1.75 µM (active), the EC50 [21] was > 59.6 µM (inactive) and the EC50 [22] was 5 µM (active). The AC50 [23] was 1.75 µM (active).

For CC1CCCCC1NC(=O)C1CCCN(S(=O)(=O)c2ccc(-n3cnnn3)cc2)C1 (stereo not given), the IC50 [24] was 3.98 µM (active) and the IC50 [25] was 5.75 µM (active).
